In patent publication US20240131007A1, “METHODS AND COMPOSITIONS FOR PICORNAVIRUS ANTI-VIRAL AGENTS” (University of Connecticut, priority 2022, published 2024):
Counter-ions that a name gives are not always drawn. Like-named read-outs stand apart in the source and are kept apart here.

Legend:
[1] = Cytotoxicity assay (Cell Titer Glo); details: African green monkey, CC50 (μM), Vero cells
[2] = system: EV-A71; test: CPE inhibition assay (Cell Titer Glo) against EV-A71 in Vero cells; format: cell-based, Enterovirus A71; details: for IC50 / anti-viral activity of analogs of Compound T3 (luminescence above 3SD cutoff): EV-A71, Vero cells; for Selectivity Index: CC50/IC50; for anti-viral activity of analogs of Compound T3 (luminescence above 3SD cutoff): single concentration 25 μM
[3] = target: T1, EV-A71 Δ2C^116-329 (Human enterovirus 71, UniProt Q66478); test: biochemical; format: biochemical
T1 construct: EV-A71 Δ2C (amino acids 116-329) was designed with; made in house; host or cells: E. coli Rosetta 2(DE3) pLysS, pMALc5x vector
T1 sequence (Q66478 1227-1440, stated change not applied): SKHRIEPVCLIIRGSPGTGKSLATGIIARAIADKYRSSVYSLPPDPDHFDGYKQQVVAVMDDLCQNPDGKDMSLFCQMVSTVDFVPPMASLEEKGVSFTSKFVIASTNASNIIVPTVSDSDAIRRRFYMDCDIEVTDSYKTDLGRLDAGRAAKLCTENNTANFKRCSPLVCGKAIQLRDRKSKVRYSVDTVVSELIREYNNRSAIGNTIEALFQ

[4] = in vitro; details: African green monkey, CC50 (μM)
[5] = system: Vero cells; test: Cytotoxicity assay (Cell Titer Glo); details: for CC50: Vero cells
[6] = Enterovirus A, EVA71, Table 10, Scaffold 1, read-out: IC50
[7] = Enterovirus A, EVA71, Table 8, virus-induced CPE, read-out: IC50
[8] = Enterovirus A, EVA71, Table 12, Scaffold 3, read-out: IC50
[9] = Enterovirus A, EVA71, Table 13, Scaffold 4, read-out: IC50
[10] = Enterovirus A, EVA71, Table 6, read-out: IC50

## O=C(Cc1cccs1)Nc1ccc(-c2nc3ccccc3[nH]2)cc1 [Compound 9, N-[4-(1H-benzimidazol-2-yl)phenyl]-2-(2-thienyl)acetamide]
[1]; Table 10, Scaffold 1
  CC50 at 3 days: 338 µM
[2]; [6]
  IC50: 104 µM
[2]; Table 10, Scaffold 1
  Selectivity Index: 3.26

## Cc1cccc(C(=O)Nc2ccc(-c3nc4ccccc4[nH]3)cc2)c1 [Compound 12, N-[4-(1H-benzimidazol-2-yl)phenyl]-3-methylbenzamide]
[3]
  IC50: 652 µM
[4]
  CC50 at 3 days: 432 µM
[2]; [6]
  IC50: 13.2 µM
[2]; Table 10, Scaffold 1
  Selectivity Index: 32.71

## O=C(Nc1ccc(-c2nc3ccccc3[nH]2)cc1)c1c(F)c(F)c(F)c(F)c1F [Compound 16, N-[4-(1H-benzimidazol-2-yl)phenyl]-2,3,4,5,6-pentafluorobenzamide]
[1]; Table 10, Scaffold 1
  CC50 at 3 days: > 400 µM
[2]; [6]
  IC50: > 25 µM

## O=C(C=Cc1ccco1)Nc1ccc(-c2nc3ccccc3[nH]2)cc1 [Compound 20, N-[4-(1H-benzimidazol-2-yl)phenyl]-3-(2-furyl)acrylamide]
[1]; Table 10, Scaffold 1
  CC50 at 3 days: > 400 µM
[3]
  IC50: 18.1 µM
[2]; [6]
  IC50: 5.41 µM
[2]; Table 10, Scaffold 1
  Selectivity Index: >73.94

## O=C(CSc1ccc(Cl)cc1)Nc1ccc(-c2nc3ccccc3[nH]2)cc1 [Compound 25, N-[4-(1H-benzimidazol-2-yl)phenyl]-2-[(4-chlorophenyl)thio]acetamide]
[1]; Table 10, Scaffold 1
  CC50 at 3 days: 582 µM
[2]; [6]
  IC50: > 25 µM

## O=C(Nc1ccc(-c2nc3ccccc3[nH]2)cc1)c1ccc(C(=O)Nc2ccc(-c3nc4ccccc4[nH]3)cc2)cc1 [Compound 28, N,N′-bis[4-(1H-benzimidazol-2-yl)phenyl]terephthalamide]
[3]
  IC50: 0.55 µM
[4]
  CC50 at 3 days: > 400 µM
[2]; [6]
  IC50: 41.7 µM
[2]; Table 10, Scaffold 1
  Selectivity Index: >9.6

## Cc1ccc2[nH]c(-c3ccc(NC(=O)Cc4cccs4)cc3)nc2c1 [Compound 35, N-[4-(5-methyl-1H-benzimidazol-2-yl)phenyl]-2-(2-thienyl)acetamide]
[1]; Table 10, Scaffold 1
  CC50 at 3 days: > 400 µM
[2]; [6]
  IC50: > 25 µM

## COc1ccc(C(=O)Nc2ccc(-c3nc4cc(C)ccc4[nH]3)cc2)cc1OC [Compound 37, 3,4-dimethoxy-N-[4-(5-methyl-1H-benzimidazol-2-yl)phenyl]benzamide]
[3]
  IC50: 20.6 µM
[4]
  CC50 at 3 days: > 400 µM
[2]; [6]
  IC50: 69.1 µM
[2]; Table 10, Scaffold 1
  Selectivity Index: >5.79

## Cc1ccc2[nH]c(-c3ccc(NC(=O)c4ccc(Br)o4)cc3)nc2c1 [Compound 40, 5-bromo-N-[4-(5-methyl-1H-benzimidazol-2-yl)phenyl]-2-furamide]
[3]
  IC50: 37.3 µM
[4]
  CC50 at 3 days: > 400 µM
[2]; [6]
  IC50: 81.9 µM
[2]; Table 10, Scaffold 1
  Selectivity Index: >4.89

## Cc1ccc2[nH]c(-c3ccc(NC(=O)c4ccc(C)c(C)c4)cc3)nc2c1 [Compound 43, 3,4-dimethyl-N-[4-(5-methyl-1H-benzimidazol-2-yl)phenyl]benzamide]
[3]
  IC50: 55 µM
[4]
  CC50 at 3 days: 170 µM
[2]; [7]
  IC50: 4.27 µM
[2]; Table 8
  Selectivity Index: 39.86
[2]; Table 10, Scaffold 1
  Selectivity Index: 39.86

## Cc1ccc2[nH]c(-c3ccc(NC(=O)c4cccc(Br)c4)cc3)nc2c1 [Compound 44, 3-bromo-N-[4-(5-methyl-1H-benzimidazol-2-yl)phenyl]benzamide]
[3]
  IC50: 19 µM
[4]
  CC50 at 3 days: 475 µM
[2]; [6]
  IC50: 10.5 µM
[2]; Table 10, Scaffold 1
  Selectivity Index: 45.23

## O=C(Nc1ccc(-c2nc3ccccc3o2)cc1)c1ccc(NC(=O)c2cc3ccccc3o2)cc1 [Compound 46, N-[4-({[4-(1,3-benzoxazol-2-yl)phenyl]amino}carbonyl)phenyl]-1-benzofuran-2-carboxamide]
[3]
  IC50: 17.4 µM
[4]
  CC50 at 3 days: 1380 µM
[2]; [6]
  IC50: 40 µM
[2]; Table 10, Scaffold 1
  Selectivity Index: 34.49

## O=C(Nc1ccc(-c2nc3cc4ccccc4cc3[nH]2)cc1)c1cccc(Br)c1 [Compound 48, 3-bromo-N-[4-(1H-naphtho[2,3-d]imidazol-2-yl)phenyl]benzamide]
[3]
  IC50: 33.1 µM
[4]
  CC50 at 3 days: 302 µM
[2]; [7]
  IC50: 0.71 µM
[2]; Table 8
  Selectivity Index: 426.06
[2]; Table 11, Scaffold 2
  Selectivity Index: 426.06

## O=C(Nc1ccc2[nH]c(-c3ccc(Br)o3)nc2c1)c1ccc([N+](=O)[O-])cc1 [Compound 51, N-[2-(5-bromo-2-furyl)-1H-benzimidazol-5-yl]-4-nitrobenzamide]
[3]
  IC50: 54.1 µM
[4]
  CC50 at 3 days: 126 µM
[2]; [8]
  IC50: 72.4 µM
[2]; Table 12, Scaffold 3
  Selectivity Index: 1.74

## CC(=O)Nc1ccc2[nH]c(-c3ccc(Br)o3)nc2c1 [Compound 52, N-[2-(5-bromo-2-furyl)-1H-benzimidazol-5-yl]acetamide]
[1]; Table 12, Scaffold 3
  CC50 at 3 days: 9.2 µM
[2]; [8]
  IC50: 7.1 µM
[2]; Table 12, Scaffold 3
  Selectivity Index: 1.30

## Cc1ccc(-c2nc3cc(NC(=O)c4cccs4)ccc3[nH]2)o1 [Compound 55, N-[2-(5-methyl-2-furyl)-1H-benzimidazol-5-yl]-2-thiophenecarboxamide]
[1]; Table 12, Scaffold 3
  CC50 at 3 days: > 400 µM
[2]; [8]
  IC50: > 25 µM

## O=C(Nc1ccc2[nH]c(-c3cccs3)nc2c1)c1cccs1 [Compound 56, N-[2-(2-thienyl)-1H-benzimidazol-5-yl]-2-thiophenecarboxamide]
[1]; Table 12, Scaffold 3
  CC50 at 3 days: 123 µM
[2]; [8]
  IC50: 20 µM
[2]; Table 12, Scaffold 3
  Selectivity Index: 6.17
[2]
  anti-viral activity of analogs of Compound T3 (luminescence above 3SD cutoff): have activity

## O=C(Nc1ccc2[nH]c(-c3ccco3)nc2c1)c1cccs1 [Compound 57, N-[2-(2-furyl)-1H-benzimidazol-5-yl]-2-thiophenecarboxamide]
[1]; Table 8
  CC50 at 3 days: 8.5 µM
[1]; Table 12, Scaffold 3
  CC50 at 3 days: 8.5 µM
[2]; [7]
  IC50: 2.75 µM
[2]; Table 8
  Selectivity Index: 3.09
[2]; Table 12, Scaffold 3
  Selectivity Index: 3.09
[2]
  anti-viral activity of analogs of Compound T3 (luminescence above 3SD cutoff): have activity

## Cc1ccc2nc(-c3cccc(NC(=O)c4ccco4)c3)[nH]c2c1 [Compound 63, N-[3-(6-methyl-1H-benzimidazol-2-yl)phenyl]-2-furamide]
[1]; Table 13, Scaffold 4
  CC50 at 3 days: 131 µM
[2]; [9]
  IC50: 24.8 µM
[2]; Table 13, Scaffold 4
  Selectivity Index: 5.28

## Cc1ccc(-c2nc3ccccc3[nH]2)cc1NC(=O)c1cc2ccccc2o1 [Compound 66, N-[5-(1H-benzimidazol-2-yl)-2-methylphenyl]-1-benzofuran-2-carboxamide]
[4]
  CC50 at 3 days: 94.7 µM
[2]; [9]
  IC50: 8.52 µM
[2]; Table 13, Scaffold 4
  Selectivity Index: 11.11

## O=C(Nc1cccc(-c2nc3ccccc3[nH]2)c1)c1cc2ccccc2o1 [Compound 67, N-[3-(1H-benzimidazol-2-yl)phenyl]-1-benzofuran-2-carboxamide]
[4]
  CC50 at 3 days: 43 µM
[2]; [9]
  IC50: 14.9 µM
[2]; Table 13, Scaffold 4
  Selectivity Index: 2.89

## COc1ccccc1OCC(=O)Nc1ccc(-c2nc3cc(C)ccc3[nH]2)cc1 [Compound T1, 2-(2-methoxyphenoxy)-N-[4-(5-methyl-1H-benzimidazol-2-yl)phenyl]acetamide]
[4]
  CC50 at 3 days: 306 µM
[2]; [10]
  IC50: 5 µM
[2]; Table 6
  Selectivity Index: 61.24

## COc1cc(C)c(S(=O)(=O)NCCc2c(C)[nH]c3ccccc23)cc1C [Compound T2, 4-methoxy-2,5-dimethyl-N-[2-(2-methyl-1H-indol-3-yl)ethyl]benzenesulfonamide]
[4]
  CC50 at 3 days: 85.4 µM
[2]; [10]
  IC50: 17 µM
[2]; Table 6
  Selectivity Index: 5.03

## Cc1ccc2[nH]c(-c3ccc(NC(=O)c4ccco4)cc3)nc2c1 [Compound T3, N-[4-(5-methyl-1H-benzimidazol-2-yl)phenyl]-2-furamide]
[1]; Table 6
  CC50 at 3 days: > 200 µM
[5]; up to 200 μM
  toxicity to Vero cells: no toxicity
[2]; Enterovirus A, EVA71, read-out: IC50 for inhibition of virus-induced CPE
  IC50: 2.9 µM
[2]; [10]
  IC50: 2.9 µM
[2]; Table 6
  Selectivity Index: >68.97
[2]; from IC50 and CC50
  selectivity index: > 68.9

## O=C(Nc1ccc2[nH]c(-c3ccc(Br)o3)nc2c1)c1ccccc1 [Compound T4, N-[2-(5-bromo-2-furyl)-1H-benzimidazol-5-yl]benzamide]
[4]
  CC50 at 3 days: > 200 µM
[2]; [10]
  IC50: 12.2 µM
[2]; Table 6
  Selectivity Index: >16.33

## Cc1[nH]c2ccc(Br)cc2c1CCN [Compound T5, [2-(5-bromo-2-methyl-1H-indol-3-yl)ethyl]aminehydrochloride]
[5]; Table 6
  CC50: 61.6 µM
[2]; Table 6, read-out: IC50
  IC50: 103 µM

## COc1ccc(CCNC(=O)C(=O)c2c(-c3ccccc3)[nH]c3ccccc23)cc1OC [Compound T6, N-[2-(3,4-dimethoxyphenyl)ethyl]-2-oxo-2-(2-phenyl-1H-indol-3-yl)acetamide]
[4]
  CC50 at 3 days: > 200 µM
[2]; [10]
  IC50: 44.2 µM
[2]; Table 6
  Selectivity Index: >4.52

## N-[4-(1H-benzimidazol-2-yl)phenyl]-2-(3-4-phenylthio)acetamide [Compound 22]
[5]; Table 10, Scaffold 1
  CC50: 761 µM

## N-[4-(5-methyl-1H-benzimidazol-2-yl)phenyl]-2-(3-7-phenylthio)acetamide [Compound 42]
[5]; Table 10, Scaffold 1
  CC50: 684 µM
[2]; Table 10, Scaffold 1, read-out: IC50
  IC50: 6.99 µM
